Source: patent US4636518A, “Imidazole derivatives and pharmaceutical compositions” (G. D. Searle & Co., priority 1981, dated 1987)
Read-outs that look alike come from different tables or passages of the source.

Tests used:
[1] = system: PGI2 synthesis in cultured bovine arterial endothelial cells; test: Prostacyclin production in cultured aortic endothelial cells (6-keto PGF1α radioimmunoassay); type: cell-based; conditions: for Net PGI2 synthesis: control 120
From the text: Prostacyclin Production in Cultured Aortic Endothelial Cells
Bovine aortic arch tissue was obtained from a local abattoir, and transported to the laboratory on ice. Arterial endothelial cells were obtained from the washed (phosphate buffered saline) aortic arch tissue by gentle scraping of the intima, within two hours of sacrifice. Cell suspensions were washed by centrifugation, resuspended, and propagated in Roswell Park Memorial Institute (RPMI) 1640 medium (Moore, G. E., J.A.M.A., (1967), 199, 519) 1640 medium+20% foetal calf serum (FCS)+antibiotics (1-2 doublings). The cells were then trypsinised, cloned by limiting dilution, selected colonies grown to confluence (3-4 passages), and stored in liquid nitrogen. When required, batches of cells were removed from store, resuscitated, and propagated in RPMI medium+10% FCS+antibiotics (passaged 6-15 times). At trypsinisation, representative cells from each passage were transferred to multiwell plates (1×10^5 cells/well) and incubated for 3 days (final count 3.5×10^5 cells/well).
The medium in each well of the plate was exchanged for serum and antibiotic free RPMI 1640, and a time 0 sample (100 μl) taken. Drugs or vehicle were next added as required, and a further sample (800 μl) taken from each well after a 60 minute incubation at 37° C. with gentle shaking. Prostacyclin synthesis and release into the medium over this period was estimated using an RIA technique for 6-keto PGF1α, the stable metabolite of PGI2 (New England Nuclear 6-keto PGF1α RIA kit, Catalogue No. NEK 008).
(b) Assay of 6-keto PGF1α
Briefly, 100 μl aliquots in 50 mM phosphate buffer+0.1% gelatin+0.01% thimerosal (pH 6.8) of the following were incubated together for 16 hours at 4° C.: 6-keto PGF1α (incubation medium extract or standards 10-1000 pg/0.1 ml), [^3 H]-6-keto PGF1α (approximately 15000 dpm) anti-6-keto PGF1α antiserum. The […] and protein bound [^3 H]-6-keto PGF1α were separated by adsorption onto activated charcoal followed by centrifugation. 850 μl of the supernatant was added to an aqueous scintillation fluid, and the radioactivity present counted in a liquid scintillation counter. The binding of [^3 H]-6-keto PGF1α in the absence of added 6-keto PGF1α was approximately 40%. The least amount of 6-keto PGF1α to be detected accurately in the samples was 100 pg/ml. Cross reactivity with other prostaglandins was less than 0.3% except PGE2 (2%) and PGF2α (2.7%).

[2] = system: aggregation of human platelet rich-plasma; test: Aggregation of human platelet rich plasma (aggregating agent not stated); type: cell-based; conditions: in vitro, result in words
[3] = system: platelet aggregation in the male retired breeder rat; test: Antiplatelet activity in the male retired breeder rat model (platelet aggregate ratio); type: in vivo; conditions: read-out: EX50 (3h post oral administration)
Procedure: The retired breeder male rat may be utilized any time from 24 hours to 6 months after receipt without prior fasting or manipulation. […] The test (as described in R. N. Saunders, T. S. Burns, M. R. Selzer and E. R. Waskawic, Lab. Animal Sci., (1977), 27, 757-761) consists of the oral administration of the investigative compound either dissolved in or suspended in propylene glycol 400 at 20 mg/kg to four retired breeder male rats (40 mg of compound required). Three hours from the time of administration, the rats are ether anaesthetized, the abdominal cavity exposed and one ml of blood is withdrawn into each of two syringes from the vena cava. The first syringe contains four ml of buffered citrate/formalin solution and the second syringe contains four ml of buffered citrate alone. The syringes are inverted, held at room temperature for 15 minutes and the contents are centrifuged at 170 g for 14 minutes. Platelet counts are obtained on the undiluted solutions by means of a hemacytometer under 430×phase-contrast microscopy. The platelet aggregate ratio is obtained by dividing the platelet count of the first syringe by that of the second syringe. A ratio of 1.0 would indicate that no platelet aggregates are present whereas ratios below 1.0 indicate the presence and degree of platelet aggregate formation which has occurred.

[4] = system: thromboxane production in human platelet rich plasma (TxB2); test: Thromboxane production in human platelet rich plasma (TxB2 radioimmunoassay, collagen stimulated); type: cell-based; conditions: read-out: ACTIVITY (IC50 × 10^6 M)
From the text: The antithrombotic activity of the compounds of the invention has been determined by their ability to inhibit production of thromboxane A2 (TxA2) by blood platelets the synthesis of which is an important factor in the aggregation of platelets and the initiation of thrombosis (R. J. Gryglewski, CRC Crit. Rev. Biochem., (1980), 7(4), 291).
The compounds of the invention have been tested by the following in vitro radioimmunoassays for their ability to inhibit thromboxane and affect prostacyclin production.
Thromboxane production in Human Platelet Rich Plasma
(§1) (a) Platelet rich plasma (prp) preparation
(§2) Human venous blood was […] from healthy male donors, who had denied any medication during the previous 14 days. Nine volumes of blood were mixed with one volume of 3.24% trisodium citrate. The citrated blood was centrifuged at 160 g for 10 mins. at 22° C. to obtain platelet rich plasma (prp). The platelets were then counted on a Coulter counter, and the platelet count was adjusted to 200,000 per μl with plasma.
(b) Thromboxane generation
The prp was then dispensed as aliquots into micro-Eppendorf tubes, maintained at 37° C. in a dry bath. The compounds, dissolved either in saline, ethanol, or dimethylsulphoxide, were added in duplicate to the prp aliquots to produce final concentrations in the range of 0.1-30 μg/ml. When ethanol and DMSO were used as the vehicle, triplicate controls containing the same percentage of vehicle as the test compounds were made. The final concentration of organic solvent was never more than 0.1%, which in previous experiments had no effect on TxB2 generation.
Following a 10 min. incubation with test compounds or vehicle, collagen was added to produce a final concentration of 20 μg/ml. The tubes were then whirly-mixed for 15 seconds and replaced in the dry bath for a further 10 minutes, controls received saline instead of collagen. The reaction was then stopped by rapid centrifugation (15000 g for 3 mins). The plasma was removed and frozen at -29° C. until assayed.
(c) Assay of Thromboxane B2
Briefly, 100 μl aliquots of the following, in 50 mM phosphate buffer+0.1% gelatin+thimerosal (pH 6.8) were incubated together for 16 hours at 4° C.: thromboxane TxB2 (plasma extract or standards 50 to 10,000 pg/ml), [^3 H]--TxB2 (approximately 15,000 dpm) and anti-TxB2 antiserum (0.5 μg/100 μl). The free and protein bound [^3 H]--TxB2 were separated by adsorption onto activated charcoal followed by centrifugation. […] of the supernatant was added to an aqueous scintillation fluid, and the radioactivity present was counted in a liquid scintillation counter. The binding of [^3 H]--TxB2 in the absence of added TxB2 was approximately 55%. The least amount of TxB2 to be detected accurately in the plasma was 50 pg/ml. Cross reactivity with other prostaglandins is less than 0.005% except PGD2 which is 1%.
Thus plasma samples were assayed to give a rough approximation of TxB2 content. The plasma was then appropriately diluted and assayed in duplicate to give accurate values.
The amount of TxB2 generated by the collagen was calculated by subtracting mean values obtained for the saline stimulated platelets from the mean values obtained from the collagen stimulated platelets. Then the amount of TxB2 generated in the presence of each concentration of compound was expressed as a % control and dose response curves were then constructed to determine the concentration of compound which produced a 50% inhibition.

[5] = system: arachidonic acid induced aggregation of human prp; test: Inhibition of platelet aggregation in vitro, arachidonic acid induced (turbidometric); type: cell-based; conditions: for IC50: Platelet, human prp, arachidonic acid, read-out: I.C.50 (μM) vs ARACHIDONIC ACID; for inhibition of arachidonic acid induced aggregation of human prp: result in words
Procedure: as §1, §2
(§3) Inhibition of Platelet Aggregation in vitro
In addition to the above tests, platelet aggregation in citrated prop (prepared as above) against a variety of aggregating agents was measured turbidometrically in a Payton Dual Channel Aggregometer (method as described in G.V.R. Born, Nature, (1962), 194, 927).

[6] = system: collagen induced aggregation of human prp; test: Inhibition of platelet aggregation in vitro, collagen induced (turbidometric); type: cell-based; conditions: for IC50: Platelet, human prp, collagen, read-out: I.C.50 (μM) vs COLLAGEN; for inhibition of collagen induced aggregation of human prp: result in words
Procedure: as §1
as §2, with “Nine volumes of blood were mixed with one volume of 3.24% trisodium citrate.” left out
as §3

[7] = male breeder rat, oral, 3h post administration

SMILES | IC50 [4] [µM] | ED50 [3, 7] [mg/kg] | IC50 [5] [µM] | IC50 [6] [µM] | also measured
COc1ccc(COCC(Cn2ccnc2)OCc2ccc(OC)cc2)cc1 (centres unmarked) [Example 1, 1-[2-[(4-methoxyphenyl)methoxy]-3-[(4-methoxyphenyl)methoxy]propyl]-1H-imidazole] | 12 | 0.49 | 31 | 103 | Net PGI2 synthesis ([1]; 26 µM): 125 pg 6-keto PGF1 α/60 min/3.5 × 10^5; Net PGI2 synthesis ([1]; 7.8 μm): 130 pg 6-keto PGF1 α/60 min/3.5 × 10^5; Net PGI2 synthesis ([1]; 26.0 μm): 106 pg 6-keto PGF1 α/60 min/3.5 × 10^5; Net PGI2 synthesis ([1]; 78.0 μm): 135 pg 6-keto PGF1 α/60 min/3.5 × 10^5; activation at 2.6 µM ([1]; Bos taurus, Endothelial cell, 1 h, 2.6 μm, 60 min, read-out: % Change (PGI2 synthesis)): 4%; activation at 7.8 µM ([1]; Bos taurus, Endothelial cell, 1 h, 7.8 μm, 60 min, read-out: % Change (PGI2 synthesis)): 8%; activation at 26 µM ([1]; Bos taurus, Endothelial cell, 1 h, 26.0 μm, 60 min, read-out: % Change (PGI2 synthesis)): -12%; activation at 78 µM ([1]; Bos taurus, Endothelial cell, 1 h, 78.0 μm, 60 min, read-out: % Change (PGI2 synthesis)): 12%; effect on production of prostacyclin ([1]; at concentrations equivalent to those which inhibit TxA2 formation, result in words): not to significantly effect production of prostacyclin; effect on basal PGI2 synthesis ([1]; at concentrations substantially in excess of those which inhibit platelet thromboxane synthetase, 1 hour, result in words): no significant effect on basal PGI2 synthesis; aggregation of human platelet rich-plasma [2]: the aggregation of human platelet rich-plasma; inhibition of arachidonic acid induced aggregation of human prp [5]: clearly more active than aspirin, dipyridamole, or sulphinpyrazone; inhibition of collagen induced aggregation of human prp [6]: clearly more active than aspirin, dipyridamole, or sulphinpyrazone
COc1ccc(COCC(Cn2ccnc2)OCc2ccccc2)cc1 (centres unmarked) [Example 2] | 11 |  |  |  | 
COc1ccc(COCC(Cn2ccnc2)OCc2ccc(Cl)cc2)cc1 (centres unmarked) [Example 4] | 23 |  |  |  | 
COc1ccc(COCC(Cn2ccnc2)OCc2cccc(OC)c2)cc1 (centres unmarked) [Example 15] | 14 |  |  |  | 
COc1ccc(COCC(Cn2ccnc2)OCc2ccc3c(c2)OCO3)cc1 (centres unmarked) [Example 20] | 4 | 1.8 | 24 | 89 | inhibition of arachidonic acid induced aggregation of human prp [5]: clearly more active than aspirin, dipyridamole, or sulphinpyrazone; inhibition of collagen induced aggregation of human prp [6]: clearly more active than aspirin, dipyridamole, or sulphinpyrazone
COc1ccc(COCC(Cn2ccnc2)OCc2ccc(C#N)cc2)cc1 (centres unmarked) [Example 24] | 12 |  |  |  | 
CC(=O)Oc1ccccc1C(=O)O [aspirin, reference compound] |  |  | 56 |  | ED50 ([3]; Rattus norvegicus, po, 3 h): 7.7 mg/kg
OCCN(CCO)c1nc(N2CCCCC2)c2nc(N(CCO)CCO)nc(N3CCCCC3)c2n1 [dipyridamole, reference compound] |  | 1.8 | > 200 | > 200 | 
O=C1C(CC[S+]([O-])c2ccccc2)C(=O)N(c2ccccc2)N1c1ccccc1 (centres unmarked) [sulphinpyrazone, reference compound] |  | 4.1 |  | 173 | 

Further lines, with some results ahead:

IC50 [4] [µM] | SMILES | ED50 [3, 7] [mg/kg] | IC50 [5] [µM] | IC50 [6] [µM] | also measured
10 | COc1ccc(COCC(Cn2ccnc2)OCc2ccccn2)cc1 (centres unmarked) [Example 28] |  |  |  | 
20 | COc1ccc(COCC(Cn2ccnc2)OCc2ccsc2)cc1 (centres unmarked) [Example 30] |  |  |  | 
13 | c1cncc(COC(COCc2ccc3c(c2)OCO3)Cn2ccnc2)c1 (centres unmarked) [Example 34] |  |  |  | 
22 | COc1ccc(COC(CSCc2ccc(OC)cc2)Cn2ccnc2)cc1 (centres unmarked) [Example 35] |  |  |  | 
